Test results: patent US8895726B2, “Compounds derived from indole and pharmaceutical compositions containing them” (The Institut Curie, priority 2007, dated 2014)

Test system: FLAG-hUPF1
Experiment: Phosphorylation level of Flag-hUPF1 by 2D gel analysis
Type: cell-based
Conditions: 293T cells, 5 μM for 3 hours, then serum for one hour
Method: 293T cells (10^6) were transfected with 1 μg of pFLAG-hUpf1 plasmid (Sun et al., 1998) by using the Lipofectamine Plus Reagent (Invitrogen) kit according to the instructions of the manufacturer. After 12 hours, the serum was removed from the culture medium for 24 hours before adding 5 μM of compounds to be tested or, as a control, 10% (v/v) DMSO for 3 hours at 37° C. and 5% CO2. Next, 10% serum is again added for 1 hour at 37° C. and 5% CO2. The total proteins were purified with a lysis buffer comprising 8M urea, 2% CHAPS and 40 mM of Tris base. Migration in the first dimension was carried out according to the procedure described by AMERSHAM-BIOSCIENCES for 2D electrophoresis with an immobilized pH gradient. Immobiline™ DryStrip at pH 3-10 (18 cm) was used for separating the proteins according to their isoelectric point. Next, the second dimension was carried out by loading the first dimension on 10% SD S-PAGE gel. Finally, the proteins were transferred on a nitrocellulose membrane before incubating them with an anti-FLAG antibody (SIGMA-ALDRICH) in TBS containing 0.05% TWEEN overnight at 4° C., followed by incubation with an anti-mouse goat antibody conjugate to peroxidase (PIERCE). The proteins were then detected by using the <<SuperSignal West Femto Maximum Sensitivity Substrate>> (PIERCE). […]

With `Cc1c2ccnc(Cl)c2c(C)c2c1[nH]c1ncccc12` [Compound 70, 6-Chloro-5,1-0dimethyl-11H-pyrido[3′,2′:4,5]-pyrrolo[3,2-g]isoquinoline] the “phosphorylation of FLAG-hUPF1” value was “stabilization of additional phosphorylated isoforms of FLAG-hUPF1”.
